{
  "source": "patent US9993449B2",
  "about": "“(S)-3-amino-4-(difluoromethylenyl)cyclopent-1-ene-1-carboxylic acid, and related compounds as GABA aminotransferase inactivators for the treatment of epilepsy, addiction and hepatocellular carcinoma” (NORTHWESTERN UNIVERSITY, priority 2015, dated 2018)",
  "key": {"hERG channel": {"molecular_target": "T1, hERG channel (Homo sapiens, UniProt Q12809)", "T1 construct": "host or cells: CHO-K1", "T1 sequence (Q12809 whole entry)": "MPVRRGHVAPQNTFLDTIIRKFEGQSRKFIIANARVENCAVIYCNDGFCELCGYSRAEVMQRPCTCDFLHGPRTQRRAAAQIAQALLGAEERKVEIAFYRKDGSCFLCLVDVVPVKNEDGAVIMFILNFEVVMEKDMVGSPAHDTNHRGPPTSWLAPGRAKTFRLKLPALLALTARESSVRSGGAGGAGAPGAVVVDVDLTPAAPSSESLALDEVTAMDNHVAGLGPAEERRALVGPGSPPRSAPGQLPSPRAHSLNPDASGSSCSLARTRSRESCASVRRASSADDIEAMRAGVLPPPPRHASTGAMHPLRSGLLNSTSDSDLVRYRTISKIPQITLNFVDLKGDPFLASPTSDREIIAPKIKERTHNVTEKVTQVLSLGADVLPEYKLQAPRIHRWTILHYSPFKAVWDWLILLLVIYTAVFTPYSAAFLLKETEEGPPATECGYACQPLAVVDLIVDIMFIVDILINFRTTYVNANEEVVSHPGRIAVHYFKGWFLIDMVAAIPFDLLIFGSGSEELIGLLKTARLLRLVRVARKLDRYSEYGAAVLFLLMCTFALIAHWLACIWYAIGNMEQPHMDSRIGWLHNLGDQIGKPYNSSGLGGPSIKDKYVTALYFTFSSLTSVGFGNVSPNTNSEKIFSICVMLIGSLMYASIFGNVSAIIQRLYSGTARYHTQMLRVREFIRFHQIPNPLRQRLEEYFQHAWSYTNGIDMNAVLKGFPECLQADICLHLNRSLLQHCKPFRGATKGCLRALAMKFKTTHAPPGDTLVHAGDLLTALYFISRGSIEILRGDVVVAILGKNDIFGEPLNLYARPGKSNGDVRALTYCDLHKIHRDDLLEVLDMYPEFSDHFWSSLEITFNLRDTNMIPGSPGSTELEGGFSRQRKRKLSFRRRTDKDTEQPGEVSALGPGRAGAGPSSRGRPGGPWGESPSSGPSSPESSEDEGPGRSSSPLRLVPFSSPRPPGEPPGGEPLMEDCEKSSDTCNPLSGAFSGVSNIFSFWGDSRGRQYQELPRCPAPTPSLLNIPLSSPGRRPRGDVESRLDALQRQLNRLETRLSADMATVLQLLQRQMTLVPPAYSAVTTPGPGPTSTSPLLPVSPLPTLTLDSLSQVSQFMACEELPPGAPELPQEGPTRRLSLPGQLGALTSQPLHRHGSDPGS", "assay": "Inhibition of the hERG channel (automated whole-cell patch clamp, hERG CHO-K1 cell line)", "type": "cell-based", "settings": "0.1 μM, 1 μM, and 10 μM; 5 min at room temperature", "procedure": "Inhibition of the hERG Channel. The experiments were performed by Eurofins Panlabs (Redmond, Wash. 98052, USA). hERG CHO-K1 cell line was used. The test concentrations were 0.1 μM, 1 μM, and 10 μM. The incubation time was 5 min at room temperature, cumulatively. The detection method used an automated whole-cell patch clamp. The experiments were duplicated, and the % inhibition of the tail current was averaged (FIG. 7)."}, "Plasma protein binding": {"assay": "Plasma protein binding", "type": "in vitro ADME"}},
  "note": "Where a name gives a salt, the structure may show the parent alone.",
  "data": [
    {"smiles": "N[C@H]1C=C(C(=O)O)CC1=C(F)F", "note": "[Compound 1, (S)-3-Amino-4-(difluoromethylenyl)cyclopent-1-ene-1-carboxylic acid Hydrochloride]", "values": [
      {"measurement": "inhibition of the activity of the hERG channel", "setting": "hERG channel", "result": "does not inhibit"},
      {"measurement": "fraction unbound", "setting": "Plasma protein binding", "result": 0.73}
    ]}
  ]
}
